Measured values published in US20060111258A1, “Solid N-acylalanine or a salt thereof” (AJINOMOTO CO., INC., priority 2003, published 2006).

Columns and labels:
[1] = Evaluation of moisture absorbability during preservation (automatic vapor absorption measurement); type: physicochemical; conditions: average equilibrated moisture at humidity 70% RH, measurement temperature 25° C.
Method: 2. Evaluation of Moisture Absorbability During Preservation: The moisture absorbability was measured under the following measurement conditions and using an automatic vapor absorption measurement apparatus “BELSORP18” manufactured by BELL JAPAN, INC. Measurement conditions: X air thermostatic tank temperature: 50° C.; X measurement temperature: 25° C.; X MAX intake pressure: 0.9×Ps (Ps: saturated vapor pressure at measurement temperature); X MIN exhaust pressure: 0.1×Ps (Ps: saturated vapor pressure at measurement temperature); and X equilibration time: 5 min. Evaluation: Average equilibrated moisture of less than 5% at humidity 70% RH is ⊙, not less than 5% to less than 10% is ◯, not less than 10% to less than 15% is A, not less than 15% is x.

[2] = Evaluation of caking during preservation; type: physicochemical; conditions: solid N-acylalanine salt; powder 25 g under 770 g spindle, 50° C., 24 hours, visual
Excerpt: 3. Evaluation of Caking During Preservation […] […] 6. Evaluation of Caking During Preservation: The measurement apparatus and measurement conditions were the same as in the aforementioned 3.

Compound: CCCCCCCCCCCC(=O)NC(C)C(=O)[O-].[K+] (racemic) [Example 1, lauroyl-DL-alanine potassium salt]
- moisture absorbability during preservation [1]: ⊚
- caking during preservation [2]: ⊚
